{
  "source": "patent US20080234368A9",
  "about": "“Therapeutic compositions and methods of use” (Trustees of Dartmouth College, priority 1998, published 2008)",
  "key": {"[1]": {"system": "NO production in primary mouse macrophages", "assay": "NO production induced by LPS and IFN-γ in primary mouse macrophages (FIG. 7)", "format": "cell-based"}, "COX-2 [2]": {"system": "COX-2", "assay": "Western blot for IL-1β-induced COX-2 protein in 18Co colon myofibroblasts", "format": "cell-based, human", "conditions": "18Co cells, IL-1β 30 pg/ml", "description": "FIG. 14(A) illustrates Western blots; primary mouse macrophages; IFN-γ, 10 ng/ml; LPS, 2 ng/ml were added to cultures together with triterpenoids or dexamethasone (concentrations shown as […]); cells were harvested at 12 h. FIG. 14(B) illustrates Northern blots, RAW 264.7 macrophage-like cell line. IFN-γ, 10 ng/ml; LPS, 1 ng/ml; TNF-α, 10 ng/ml, were added to cultures together with CDDO or dexamethasone. RNA prepared after 12 h; GAPDH used as a loading control. FIG. 14(C) illustrates suppression of production of NO and PGEF in primary macrophages. For NO studies, cells were treated with IFN-γ, 10 ng/ml, together with CDDO (M), dexamethasone (O), TP-82 (□), or oleanolic acid (A). After 48 h, supernatants were analyzed for NO by the Griess reaction. For PGEF studies, cells were treated with IFN-γ, 5 ng/ml, and LPS, 5 ng/ml, together with the same set of inhibitors. After 48 h, PGE was measured in supernatants by immunoassay. Control values (no inhibition) for NO and PGE2 were 4.7 nmol/[…] and 2.2 ng/ml/2×10^5 cells, respectively. FIGS. (14D) and (14E) illustrate (human colon myofibroblasts) ^18Co cells grown in MEM/10% FBS; other methods are the same as reported above for macrophages. FIG. 14(D) illustrates Northern blots showing dose-response for suppression of COX-2 mRNA after induction with IL-1β (30 pg/ml). CDDO was added together with IL-1. […]"}, "COX-2 [3]": {"system": "COX-2", "assay": "TPA-induced COX-2 in 18Co cells", "format": "cell-based, human", "source_text": "(§1) These cells were selected because of the importance of stromal cell COX-2 in colon carcinogenesis (Oshima et al., 1996). […] Although CDDO effectively blocks the induction of COX-2 by agents such as IFN-γ, LPS, TNF-α, and IL-1, CDDO is ineffective when TPA is used as the inducer of COX-2. This has been seen in 18Co cells, as well as in the human mammary epithelial cell line, 184B5/HER (Zhai et al., 1993)."}, "COX-2 [4]": {"system": "COX-2", "assay": "TPA-induced COX-2 in 184B5/HER mammary epithelial cells", "format": "cell-based, human", "conditions": "184B5/HER cells", "source_text": "as §1"}, "[5]": {"system": "LCDB acute myelogenous leukemia cell line", "assay": "Monocytic differentiation, α-naphthyl acetate esterase staining", "format": "cell-based, human", "description": "CDDO induces monocytic differentiation in the poorly differentiated LCDB acute myelogenous leukemia cell line, derived from a chemotherapy-resistant patient at the NCI Pediatric Oncology Branch. FIG. 11 illustrates LCDB cells seeded in RPMI 1640/2% FBS, either alone (11A), with 2.5 ng/ml TGF-β1 (11B), with 10^−8 M CDDO (11C), or with both TGF-β1 and CDDO (11D). After 48 h, cytospin slide preparations were made and stained for α-naphthyl acetate esterase activity (kit from Sigma). PC12 cells were cultured for 5 days in gridded dishes in DMEM/10% FBS and 5% horse serum (Smith et al., 1997), either alone (11E), with 100 ng/ml 7S NGF (11F), with 10^−6 M CDDO (11G), or with both NGF and CDDO (11H). […] Methods for quantitative image analysis of size of cells and neurites have been described (De 1a Torre et al., 1997). Control cells in FIG. 11E are approximately 10 μm in diameter. 3T3-L1 cells were grown to confluency in DMEM/5% calf serum, and then treated once with CDDO in DMEM/10% FBS (FIG. 12A) or with CDDO and/or LG100268 in DMEM/10% FBS (FIG. 12B). Every two days thereafter, medium was changed to DMEM/10% FBS, without added CDD0 or LG100268. Cells were harvested on day 8 (FIG. 12A) or day 6 (FIG. 12B), and GPDH was measured in lysates, using a standard assay for consumption of NADH at 340 nm (Wise and Green, 1979)."}, "[6]": {"system": "IFN-γ-induced NO production in mouse macrophages", "assay": "Inhibition of IFN-γ induced NO production in mouse macrophages", "format": "cell-based", "conditions": "read-out: IC50, inhibition of IFN-γ induced NO production", "description": "The inhibitory activities of these compounds and dexamethasone on IFN-γ induced NO production in mouse macrophages is shown below in Table 1. The following procedure for the assay ws used. Macrophages were harvested from female mice injected intraperitoneally four days previously with 4% thioglycollate. These cells were seeded in 96-well tissue culture plates and incubated with 4 ng/mL IFN-γ in the presence or absence of inhibitory test compounds. After 48 hours NO production (measured as nitrite by the Griess reaction) was determined. Full details of the assay are given in Ding et al., 1990; Bogdan et al., 1992."}, "[7]": {"system": "NRP-152 non-malignant prostate epithelium cells", "assay": "Suppression of thymidine incorporation, dose-response (FIG. 13)", "format": "cell-based, rat", "conditions": "NRP-152, 72 h; oleanolic acid statement at concentrations of 1 μM or less", "description": "Inhibitors of cell proliferation are known to be useful chemopreventive and chemotherapeutic agents. CDDO was tested against a wide variety of cells derived from highly aggressive leukemias and carcinomas, as well as from non-neoplastic tissues. NRP-152 cells were grown as described in Danielpour et al., 1994. MCF-7 cells were grown in phenol red-free RPMI 1640/10% charcoal-stripped FBS with added 17-β-estradiol (10 μM). Triterpenoids were added at the time of plating, and 72 h later ^3H-thymidine (1 μCi/well) was added for the final 2 h of incubation. Incorporation of thymidine was measured after cells were precipitated with TCA (10%), washed, and solubilized. The symbols used in FIG. 13 are CDDO, ▪; TP-82, ◯; and oleanolic acid; ●."}},
  "data": [
    {"smiles": "CC1(C)CC[C@]2(C(=O)O)CC[C@]3(C)[C@H](C(=O)C=C4[C@@]5(C)C=C(C#N)C(=O)C(C)(C)[C@@H]5CC[C@]43C)[C@@H]2C1", "note": "[Compound 6, 2-cyano-3,12-dioxoolean-1,9-dien-28-oic acid]", "values": [
      {"measurement": "activity on LPS and IFN-γ induced NO production compared with dexamethasone (FIG. 7)", "setting": "[1]", "result": "favorable to that of dexamethasone"},
      {"measurement": "induction of COX-2 protein", "setting": "COX-2 [2]", "result": "blocked induction"},
      {"measurement": "blocking of COX-2 induction with TPA as inducer", "setting": "COX-2 [3]", "result": "ineffective"},
      {"measurement": "blocking of COX-2 induction with TPA as inducer", "setting": "COX-2 [4]", "result": "ineffective"},
      {"measurement": "α-naphthyl esterase activity, combination effect", "setting": "[5]; 10^−8 M CDDO with 2.5 ng/ml TGF-β1", "result": "additive effect"},
      {"measurement": "induction of α-naphthyl esterase activity (monocytic differentiation)", "setting": "[5]; 10^−8 M CDDO, within 48 h", "result": "induced the activity of this enzyme"},
      {"measurement": "IC50", "setting": "[6]", "result": 1, "unit": "nM"},
      {"measurement": "suppressing thymidine incorporation", "setting": "[7]", "result": "highly active in the nanomolar range"}
    ]}
  ]
}
